In article PMC6892925, “Development of Novel Silyl Cyanocinnamic Acid Derivatives as Metabolic Plasticity Inhibitors for Cancer Treatment” (Scientific Reports, 2019):

How the values were obtained:
[1] = test system: MDA-MB-231 cells; test: Western blot analysis of cell damage and death markers; assay type: cell-based, human
Method: (§1) Owing to the enhanced antiproliferative effects induced by test compound 2a when compared to CHC, western blot analysis of cell damage and death markers was performed. The master transcription factor p53 regulates the expression of numerous genes involved in cancer progression and is responsible for balancing proliferation and apoptosis. In this regard, we evaluated the effects of compound treatment on p53 expression. Literature reports indicate that MDA-MB-231 and WiDr cells express distinct homozygous mutant forms of p53 that promote an aggressive malignant phenotype with resistance to apoptosis[36],[37]. […] Further, PARP1 is involved in the DNA repair pathway through sensing DNA-strand breaks and recruiting repair enzymes. Importantly, PARP1 is a target of caspase cleavage under apoptotic conditions, and the appearance of the PARP1 cleavage product is a widely used indicator of cellular apoptosis. […] Additionally, DNA damage may be a downstream effect of apoptotic nuclease activity or an increase in reactive oxygen species (ROS) from damaged mitochondria; as illustrated in microscopy and seahorse experiments. Histone 2AX phosphorylation (γH2AX) resulting from DNA single- and double-strand breaks is a widely employed marker for DNA damage. In this regard, we investigated the effect of 2a on DNA damage marker γH2AX (phosphorylated Ser139, histone H2AX) with a phospho-specific antibody. […] Due to the potential of ROS leading to DNA damage and H2AX phosphorylation, we investigated the ability of antioxidant N-acetyl cysteine (NAC) to inhibit DNA damage of compound 2a as evidenced by H2AX phosphorylation in the highly oxidative cell line WiDr (Fig. 4A).
(§2) 50,000 WiDr or MDA-MB-231 cells were seeded in 100 mm dishes and were incubated for 48 hours. Cells were then treated with test compounds for 24 hours, washed twice with 1X PBS, solubilized in 200 μL SDS boiling buffer (5% w/v SDS, 10% v/v glycerol, and 60 mM Tris pH 6.8), and sonicated. The resulting cell lysate was then assayed for protein using the Pierce BCA protocol. A volume of test sample containing 10 μg protein was loaded on SDS PAGE gel for electrophoresis according to manufacturer’s instructions. Proteins were transferred from the gel to nitrocellulose membrane according to the manufacturer’s instructions. Membranes were blocked for 1 hr at 35 °C using 10% (w/v) non-fat milk in PBST and were exposed to primary antibody. PARP1 (rabbit polyclonal IgG, Origene, TA321555), p53 (rabbit polyclonal IgG, Santa Cruz, sc50329), and γ-H2AX (Upstate 05-636, 1:2500) were detected and visualized using HRP chemiluminescence. For relative quantitation, β-actin (mouse monoclonal IgG C4, Millipore, MAB1501, 1:10,000) and GAPDH (mouse monoclonal IgG, Santa Cruz, sc47724, 1:100) were detected and measured as a control protein.

[2] = test system: WiDr cells; test: as above; assay type: cell-based, human; conditions: WiDr
Method: as §1, §2

Structure (SMILES): CC(C)(C)[Si](Oc1ccc(/C=C(\C#N)C(=O)O)cc1)(c1ccccc1)c1ccccc1 [2a]
- PARP1 cleavage ([1]; 100 μM, 24 hours): induced PARP1 cleavage
- expression of γH2AX (DNA damage marker) ([1]; 100 μM, 24 hours): substantial increases
- p53 expression ([1]; 24 hours treatment): increase in p53 expression
- PARP1 cleavage ([2]; 100 μM, 24 hours): induced PARP1 cleavage
- expression of γH2AX (DNA damage marker) ([2]; 100 μM, 24 hours): substantial increases
- p53 expression ([2]; 24 hours treatment): not in WiDr
